Reference: PMC4249970 (PLoS ONE, 2014)

Experiments:
[1] = test system: acetic acid-induced writhing in CD-1 male mice; test: acetic acid writhing test (model of visceral pain); type: in vivo; details: for number of stretches: writhing test 30 minutes after antagonist
Protocol: After acetic acid administration, mice were placed in individual transparent containers and, after 5 min, the number of writhes was counted during a 10 min period.
The animals, CD-1 male mice (25–27 g), were redistributed in groups, two of which were used as the control group. […] All drugs were intraperitoneally (i.p.) administered, 30 minutes before the algogen agent. Control mice were treated with 10 ml/kg of saline solution. Each group included 10–12 animals; those animals showing behavioral alterations were previously discarded. Each animal was used only once. An observer who was unaware of the different treatments carried out the collection of data.
The experimental test used was the acetic acid writhing test. The effect of the i.p. administration of 10 ml/kg of acetic acid (2%) was measured by quantifying the number of writhing responses in the three groups of animals over a 10 minutes period. Responses were measured starting 5 minutes after the algogen agent was administered. The animals used were supplied by the animal house of Universidad Rey Juan Carlos. Room temperature was kept at 22±1°C. A 12 hours light - dark cycle was started at 8:00 a.m., at constant humidity. All animals were given free access to food and water.

TRPA1 [2] = target: T1, TRPA1 (Homo sapiens, UniProt O75762); test: whole-cell voltage clamp of AITC-evoked currents in hTRPA1-expressing IMR-90 cells; type: cell-based; design: expressed in transfected cells; host or cells: IMR-90; details: 100 µM AITC
Protocol: A) Representative whole-cell voltage clamp recording from hTRPA1-expressing IMR-90. Currents were measured every second during a holding potential of -60 mV. Pre-application of 6a/b (20 s) was followed by co-application with 100 µM AITC for 60s in presence of 2.0 mM extracellular Ca^2+. Current traces of different colours denote the different concentrations of compound 6a/b tested. B) Dose response of compound 6a/b blockade activity. Solid line depicts the fitting to a Michaelis isotherm. […] Data are given as mean ± sem, with n≥4 cells) per data point. (TIF) Click here for additional data file.
A) Representative whole-cell voltage clamp recording from hTRPA1-expressing IMR-90 cells in the absence of extracellular Ca^2+. Ionic currents, at positive and negative potentials were measured every 2s during a 350 ms voltage ramp from −60 mV to +60 mV and evoked with 100 µM AITC followed by the addition of 100 µM compound 6a/b for 20s. AITC was present with drug application and after application to evaluated current reversibility B) Current-voltage relationships of TRPA1 in the absence and presence of 100 µM compound 6a/b in Ca^2+ free medium. […] Data were obtained from n≥4 cells. (TIF) Click here for additional data file.

human recombinant COX-2 = target: T2, human recombinant COX-2 (Homo sapiens, UniProt P35354); test: COX inhibitor screening assay (Cayman kit 700100); type: biochemical; details: at 10 mM
T2 construct: purchased Cayman Chemical Company kit 700100
T2 sequence (P35354 18-604): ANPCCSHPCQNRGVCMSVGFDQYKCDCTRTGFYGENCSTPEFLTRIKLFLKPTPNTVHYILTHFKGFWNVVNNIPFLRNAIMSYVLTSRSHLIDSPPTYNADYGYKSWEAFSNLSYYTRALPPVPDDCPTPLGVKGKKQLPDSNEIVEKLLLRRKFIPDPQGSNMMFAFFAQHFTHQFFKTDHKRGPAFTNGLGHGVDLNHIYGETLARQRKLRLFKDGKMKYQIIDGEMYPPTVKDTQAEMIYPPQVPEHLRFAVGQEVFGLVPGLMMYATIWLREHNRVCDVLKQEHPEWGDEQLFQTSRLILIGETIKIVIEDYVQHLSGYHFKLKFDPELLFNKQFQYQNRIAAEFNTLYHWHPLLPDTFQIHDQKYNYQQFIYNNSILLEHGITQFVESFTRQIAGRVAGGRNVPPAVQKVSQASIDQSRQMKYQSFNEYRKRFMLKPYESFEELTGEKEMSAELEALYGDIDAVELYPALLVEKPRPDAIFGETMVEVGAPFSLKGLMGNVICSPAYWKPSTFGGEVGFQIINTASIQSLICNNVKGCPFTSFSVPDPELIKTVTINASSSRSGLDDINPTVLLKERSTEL
Source text: A COX inhibitor screening assay (kit 700100) was used to determine the activity of isolated ovine COX-1 and human recombinant COX-2 as described by the manufacturer (Cayman Chemical Company, USA).

TRPM8 = target: T3, TRPM8 (Homo sapiens, UniProt Q7Z2W7); test: Ca2+ fluorographic assay, TRPM8-HEK cells activated with 100 µM menthol; type: cell-based; details: 50 µM compound
T3 construct: expressed in transfected cells; host or cells: HEK
Protocol: (§1) For fluorescence assays, cells expressing TRP channels (TRPV1-SH-SY5Y, TRPM8-HEK and TRPA1-IMR90) were seeded in 96-well plates (Corning Incorporated, Corning, NY) at a cell density of 40,000 cells 2 days before treatment. The day of treatment the medium was replaced with 100 µL of the dye loading solution Fluo-4 NW supplemented with probenecid 2.5 mM. Then the compounds dissolved in DMSO were added at the desired concentrations and the plate(s) were incubated at 37°C in a humidified atmosphere of 5% CO2 for 60 minutes.
(§2) The fluorescence was measured using instrument settings appropriate for excitation at 485 nm and emission at 535 nm. (POLARstar Omega BMG LAB tech). A baseline recording of 7 cycles was recorded prior to stimulation with the agonist (10 µM capsaicin for TRPV1, 100 µM menthol for TRPM8, and 100 µM AITC for TRPA1). The corresponding antagonist (10 µM Ruthenium Red for TRPV1 and TRPA1, 100 µM AMTB for TRPM8) was added for the blockade. The changes in fluorescence intensity were recorded during 15 cycles more. DMSO, at the higher concentration used in the experiment, was added to the control wells.
(§3) The degree of blockage (%) of TRP channel activity was calculated by: [drawing 1]

TRPA1 [3] = target: T1, TRPA1; test: Ca2+ fluorographic assay, TRPA1-IMR90 cells activated with 100 µM AITC; type: cell-based; design: expressed in transfected cells; host or cells: IMR90
Protocol: as §1, §2, §3

TRPV1 = test: Ca2+ fluorographic assay, TRPV1-SH-SY5Y cells activated by 10 µM capsaicin; type: cell-based; details: 50 µM compound
Protocol: as §1, §2, §3

[4] = i.p. 30 minutes before acetic acid

T1 sequence (O75762 whole entry): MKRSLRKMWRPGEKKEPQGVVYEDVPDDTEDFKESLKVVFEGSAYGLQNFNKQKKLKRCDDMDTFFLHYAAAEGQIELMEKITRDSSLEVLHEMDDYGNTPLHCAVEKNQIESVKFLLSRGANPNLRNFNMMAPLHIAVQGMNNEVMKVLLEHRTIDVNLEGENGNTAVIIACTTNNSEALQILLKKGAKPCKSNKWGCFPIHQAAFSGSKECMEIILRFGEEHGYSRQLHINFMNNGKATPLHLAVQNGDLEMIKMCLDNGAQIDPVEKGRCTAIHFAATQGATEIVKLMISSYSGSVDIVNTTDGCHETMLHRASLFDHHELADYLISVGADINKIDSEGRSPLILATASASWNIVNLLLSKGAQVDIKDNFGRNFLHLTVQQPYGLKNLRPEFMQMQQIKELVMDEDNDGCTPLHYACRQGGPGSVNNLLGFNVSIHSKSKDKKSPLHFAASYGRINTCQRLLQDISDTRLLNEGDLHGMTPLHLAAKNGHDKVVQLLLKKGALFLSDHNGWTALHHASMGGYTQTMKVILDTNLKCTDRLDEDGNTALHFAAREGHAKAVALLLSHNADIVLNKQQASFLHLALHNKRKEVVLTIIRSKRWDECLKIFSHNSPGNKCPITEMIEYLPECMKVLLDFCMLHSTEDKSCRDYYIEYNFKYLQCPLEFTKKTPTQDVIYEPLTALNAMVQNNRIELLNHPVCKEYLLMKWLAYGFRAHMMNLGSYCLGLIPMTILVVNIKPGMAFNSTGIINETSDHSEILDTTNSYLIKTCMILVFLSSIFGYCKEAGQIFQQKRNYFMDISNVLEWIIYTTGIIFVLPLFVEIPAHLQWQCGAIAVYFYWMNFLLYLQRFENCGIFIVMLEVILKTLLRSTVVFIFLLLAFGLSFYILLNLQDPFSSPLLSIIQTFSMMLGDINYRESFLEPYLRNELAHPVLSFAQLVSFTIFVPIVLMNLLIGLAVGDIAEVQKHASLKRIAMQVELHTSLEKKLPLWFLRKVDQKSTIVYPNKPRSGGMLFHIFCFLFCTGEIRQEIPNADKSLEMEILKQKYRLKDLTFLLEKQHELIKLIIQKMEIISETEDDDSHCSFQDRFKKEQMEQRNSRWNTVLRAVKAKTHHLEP
T3 sequence (Q7Z2W7 whole entry, species assumed): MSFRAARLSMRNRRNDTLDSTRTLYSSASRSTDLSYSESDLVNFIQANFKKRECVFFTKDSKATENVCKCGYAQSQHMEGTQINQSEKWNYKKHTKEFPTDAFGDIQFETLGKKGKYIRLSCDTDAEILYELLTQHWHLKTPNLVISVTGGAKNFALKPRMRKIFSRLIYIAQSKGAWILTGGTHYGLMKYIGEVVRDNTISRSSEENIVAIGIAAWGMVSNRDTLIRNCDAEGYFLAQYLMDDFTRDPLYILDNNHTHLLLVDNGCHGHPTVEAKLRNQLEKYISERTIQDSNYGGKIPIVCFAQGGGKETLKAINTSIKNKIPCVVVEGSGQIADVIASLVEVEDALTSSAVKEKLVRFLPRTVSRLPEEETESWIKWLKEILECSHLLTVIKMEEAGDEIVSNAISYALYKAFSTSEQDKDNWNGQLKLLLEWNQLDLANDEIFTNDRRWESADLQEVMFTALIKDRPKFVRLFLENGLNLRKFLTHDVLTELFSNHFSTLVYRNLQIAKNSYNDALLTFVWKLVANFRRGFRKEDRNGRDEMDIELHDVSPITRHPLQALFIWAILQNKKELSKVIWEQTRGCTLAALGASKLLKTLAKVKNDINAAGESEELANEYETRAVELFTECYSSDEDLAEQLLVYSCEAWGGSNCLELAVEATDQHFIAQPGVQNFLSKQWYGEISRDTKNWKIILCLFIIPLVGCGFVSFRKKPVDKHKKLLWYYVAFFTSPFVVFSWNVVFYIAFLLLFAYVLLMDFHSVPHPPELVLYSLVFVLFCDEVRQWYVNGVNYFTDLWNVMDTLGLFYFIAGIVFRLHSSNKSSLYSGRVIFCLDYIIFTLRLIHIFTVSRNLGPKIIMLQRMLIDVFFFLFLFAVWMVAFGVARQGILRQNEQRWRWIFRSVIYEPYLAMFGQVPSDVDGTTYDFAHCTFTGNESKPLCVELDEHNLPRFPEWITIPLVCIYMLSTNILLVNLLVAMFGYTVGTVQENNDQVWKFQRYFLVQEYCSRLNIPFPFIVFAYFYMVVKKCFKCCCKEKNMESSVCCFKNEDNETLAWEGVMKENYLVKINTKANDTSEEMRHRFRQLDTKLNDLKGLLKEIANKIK

CC(=O)NC12CC3CC(CC(O)(C3)C1)C2 [compound 5, N-3-hydroxyadamantan-1-yl acetamide]
dose at which the analgesic effect saturated [1, 4]: 200 mg/kg
antinociceptive activity ([1]; i.p. 30 minutes before acetic acid, similar to paracetamol): ~40%

CC(=O)NC1C2CC3CC1CC(O)(C3)C2 (stereo not shown) [compound 6a, N-5-hydroxyadamantan-2-yl acetamide]
melting point: 184 °C

CC(=O)NC1C2CC3CC1CC(O)(C3)C2 (stereo not shown) [compound 6a/b, N-5-hydroxyadamantan-2-yl acetamide]
IC50 (TRPA1 [2]; 2.0 mM extracellular Ca2+, holding potential -60 mV, estimated, read-out: IC50 of blockade of TRPA1-mediated currents): 10.6 ± 0.7 µM
IC50 (TRPA1 [2]; absence of extracellular Ca2+, inferred, saturation of blockade not reached, read-out: IC50 of blockade of TRPA1 currents): ≥ 80 µM
effect on COX-2 enzymatic activity (human recombinant COX-2): did not affect the enzymatic activity
effect on TRPM8 channel activity (TRPM8): No significative effect
blockade of TRPA1 channel activity (TRPA1 [3]; 50 µM compound, 100 µM AITC): up to 85%
IC50 (TRPA1 [3]; dose-response curve, 100 µM AITC, mean ± SEM, n ≥5, read-out: TRPA1 inhibition IC50): 2600 nM
nH (hill coefficient) of TRPA1 inhibition (TRPA1 [3]; fit to a binding isotherm): 0.21
effect on TRPV1 channel activity (TRPV1): No significative effect
analgesic efficacy at saturation, compared with paracetamol and morphine ([1]; at saturation (750 mg/kg i.p.)): significantly higher than paracetamol and similar to morphine
number of stretches ([1]; compound given 30 minutes before CB1 antagonist AM251 (3 mg/kg i.p.)): 13±1
number of stretches ([1]; compound given 30 minutes before CB2 antagonist AM630 (1 mg/kg i.p.)): 15.5±1.7
dose at which the analgesic effect saturated [1, 4]: 750 mg/kg

CC(=O)Nc1ccc(O)cc1 [paracetamol, 4-hydroxyacetanilide, reference compound]
reduction of the nociceptic behavior (writhes) ([1]; 100 mg/kg i.p. 30 minutes before acetic acid): 40%
